Data: patent publication US7056903B2, “Carboxylic acid derivatives as IP antagonists” (Syntex (U.S.A.) LLC, priority 2000, dated 2006)
Where “and” joins values, the source holds several entries; their conditions need not be identical. Identical values can stand only once.

O=C(N[C@H](Cc1cccc(F)c1)C(=O)O)OCc1cc2cc(-c3ccccc3)ccc2o1 [Compound 108, (R)-3-(3-fluoro-phenyl)-2-(5-phenyl-benzofuran-2-ylmethoxycarbonylamino)-propionic acid]
melting point: 141.4 to 142.3 °C

O=C(O)C(Cc1ccccc1)NC(=O)C(O)c1ccc(OCc2cccc3[nH]ccc23)cc1 (stereo not shown) [Compound 88, 2-{2-hydroxy-2-[4-(1H-indol-4-ylmethoxy)-phenyl]-ethanoylamino}-3-phenyl-propionic acid]
melting point: 178 to 181 °C

O=C(N[C@H](Cc1ccccc1)C(=O)O)OCc1ccc(OCCCc2ccccc2)cc1 [Compound 87, (R)-3-phenyl-2-[4-(3-phenyl-propoxy)-benzyloxycarbonylamino]-propionic acid]
melting point: 105.6 to 106.5 °C

O=C(NC(Cc1ccccc1)C(=O)O)OCc1coc2ccc(-c3ccccc3)cc12 (stereo not shown) [Compound 172, 2-(5-Phenyl-benzofuran-3-ylmethoxycarbonylamino)-3-phenyl-propionic acid]
melting point: 177.6 to 178.6 °C

O=C(NC(Cc1ccccc1)C(=O)O)OCc1ccc(COc2ccccc2)c(F)c1 (stereo not shown) [Compound 82, 2-(3-fluoro-4-phenoxymethyl-benzyloxycarbonylamino)-3-phenyl-propionic acid]
melting point: 104.2 to 104.7 °C

O=C(N[C@H](Cc1ccccc1)C(=O)O)OCc1cc2cc(-c3ccc4[nH]ccc4c3)ccc2o1 [Compound 138, (R)-2-[5-(1H-indol-5-yl)-benzofuran-2-ylmethoxycarbonylamino]-3-phenyl-propionic acid]
melting point: 90 to 95 °C

O=C(N[C@H](Cc1ccccc1)C(=O)O)OCc1ccc2oc(-c3cccc4[nH]ccc34)nc2c1 [Compound 161, (R)-2-[2-(1H-indol-4-yl)-benzoxazol-5-ylmethoxycarbonylamino]-3-phenyl-propionic acid]
melting point: 187 to 189 °C

O=C(N[C@H](Cc1ccc(Br)cc1)C(=O)O)OCc1cc2cc(-c3ccc(F)cc3)ccc2o1 [Compound 119, (R)-3-(4-bromo-phenyl)-2-[5-(4-fluoro-phenyl)-benzofuran-2-ylmethoxycarbonylamino]-propionic acid]
melting point: 150.6 to 160 °C

O=C(N[C@H](Cc1ccccc1)C(=O)O)OCc1ccc2oc(Cc3ccccc3)cc2c1 [Compound 139, (R)-2-(2-benzyl-benzofuran-5-ylmethoxycarbonylamino)-3-phenyl-propionic acid]
melting point: 108.8 to 110.5 °C

O=C(N[C@H](Cc1ccc(F)cc1)C(=O)O)OCc1cc2cc(-c3ccccc3Cl)ccc2o1 [Compound 115, (R)-2-[5-(2-chloro-phenyl)-benzofuran-2-ylmethoxycarbonylamino]-3-(4-fluoro-phenyl)-propionic acid]
melting point: 86.7 to 100.1 °C

O=C(Cc1ccc(OCc2ccccc2)cc1)NC(Cc1ccccc1)C(=O)O (stereo not shown) [Compound 84, 2-(4-benzyloxybenzylcarbonylamino)-3-phenyl-propionic acid]
melting point: 118.3 to 119.9 °C

N#Cc1cccc(-c2ccc3oc(COC(=O)N[C@H](Cc4ccccc4)C(=O)O)cc3c2)c1 (hydrate or solvate) [Compound 96, (R)-2-[5-(3-cyano-phenyl)-benzofuran-2-ylmethoxycarbonylamino]-3-phenyl-propionic acid]
melting point: 64 to 68.5 °C

COc1ccccc1OCc1ccc(COC(=O)NC(Cc2ccccc2)C(=O)O)cc1 (stereo not shown) [Compound 74, 2-[4-(2-methoxy-phenoxymethyl)-benzyloxycarbonylamino]-3-phenyl propionic acid]
melting point: 92.6 to 93.5 °C

O=C(N[C@H](Cc1ccccc1)C(=O)O)OCc1ccc2oc(-c3ccccc3)cc2c1 [Compound 29, (R)-3-Phenyl-2-(2-phenyl-benzofuran-5-ylmethoxycarbonylamino)-propionic acid]
melting point: 172.8 to 173.5 °C

O=C(N[C@H](Cc1ccccc1)C(=O)O)OCc1ccc(COc2cccc(NC(=O)c3ccccc3)c2)cc1 [Compound 81, (R)-3-phenyl-2-(4-{3-[(1-phenyl-methanoyl)-amino]-phenoxymethyl}-benzyloxycarbonylamino)-propionic acid]
melting point: 161.9 to 163.7 °C

O=C(NC(Cc1ccccc1)C(=O)O)OCc1ccc(OCc2ccc(F)cc2)cc1 (stereo not shown) [Compound 85, 2-[4-(4-fluoro-benzyloxy)-benzyloxycarbonylamino]-3-phenyl-propionic acid]
melting point: 134 to 138 °C

O=C(NC(Cc1ccccc1)C(=O)O)OCc1ccc(COc2ccc(Cl)cc2)cc1 (stereo not shown) [Compound 155, 2-[4-(4-chloro-phenoxymethyl)-benzyloxycarbonylamino]-3-phenyl-propionic acid]
melting point: 122 to 123.1 °C

O=C(N[C@H](Cc1ccc(F)cc1)C(=O)O)OCc1cc2cc(-c3cccnc3)ccc2o1 (hydrate or solvate) [Compound 125, (R)-3-(4-fluoro-phenyl)-2-(5-pyridin-3-yl-benzofuran-2-ylmethoxycarbonylamino)-propionic acid]
melting point: 176.9 to 178.4 °C

O=C(NC(Cc1ccccc1)C(=O)O)OCc1ccc(CSc2ccccc2)cc1 (stereo not shown) [Compound 183, 3-phenyl-2-(4-phenylsulfanylmethyl-benzyloxycarbonylamino)-propionic acid]
melting point: 113.3 to 114.1 °C

CS(=O)(=O)Nc1cccc(OCc2ccc(COC(=O)N[C@H](Cc3ccccc3)C(=O)O)cc2)c1 [Compound 77, (R)-2-[4-(3-methanesulfonylamino-phenoxymethyl)-benzyloxycarbonylamino]-3-phenyl-propionic acid]
melting point: 161.9 to 164.9 °C

O=C(N[C@H](Cc1ccccc1)C(=O)O)OCc1ccc2[nH]c(-c3ccccc3)nc2c1 [Compound 129, (R)-3-Phenyl-2-(2-phenyl-1H-benzoimidazol-5-ylmethoxycarbonylamino)-propionic acid]
melting point: 165 to 215 °C

O=C(N[C@H](Cc1ccccc1)C(=O)O)OCc1cc2cc(-c3cccc4c3OCO4)ccc2o1 [Compound 102, (R)-2-(5-benzo[1,3]dioxol-4-yl-benzofuran-2-ylmethoxycarbonylamino)-3-phenyl-propionic acid]
melting point: 191 to 192 °C

O=C(N[C@H](Cc1ccc(F)cc1)C(=O)O)OCc1cc2cc(-c3cc(F)ccc3F)ccc2o1 [Compound 121, (R)-2-[5-(2,5-difluoro-phenyl)-benzofuran-2-ylmethoxycarbonylamino]-3-(4-fluoro-phenyl)-propionic acid]
melting point: 98 to 101 °C

O=C(N[C@H](Cc1ccccc1)C(=O)O)OCc1cc2cc(Cc3ccccc3)ccc2o1 [Compound 134, (R)-2-(5-benzyl-benzofuran-2-ylmethoxycarbonylamino)-3-phenyl-propionic acid]
melting point: 159.4 to 160.1 °C

O=C(O)CC(NC(=O)OCc1cc2cc(-c3ccccc3)ccc2o1)c1ccccc1 (stereo not shown) [Compound 109, 3-phenyl-3-(5-phenyl-benzofuran-2-ylmethoxycarbonylamino)-propionic acid]
melting point: 168 to 169.8 °C

O=C(NC(Cc1ccccc1)C(=O)O)OCc1ccc(COc2cccc3[nH]ccc23)cc1 (stereo not shown) [Compound 41, 2-[4-(1H-indol-4-yloxymethyl)-benzyloxycarbonylamino]-3-phenyl-propionic acid]
melting point: 106.8 to 108.2 °C and 105.9 to 108.5 °C

O=C(NC(Cc1ccccc1)C(=O)O)OCc1ccc(NC(=O)c2ccccc2)cc1 (stereo not shown) [Compound 181, 2-(4-benzoylamino-benzyloxycarbonylamino)-3-phenyl-propionic acid]
melting point: 196.9 to 198.1 °C

O=C(N[C@H](Cc1ccc(F)cc1)C(=O)O)OCc1cc2cc(-c3cc(F)cc(F)c3)ccc2o1 [Compound 123, (R)-2-[5-(3,5-difluoro-phenyl)-benzofuran-2-ylmethoxycarbonylamino]-3-(4-fluoro-phenyl)-propionic acid]
melting point: 174 to 175 °C

O=C(N[C@H](Cc1ccccc1)C(=O)O)OCc1cc2cc(-c3ccccc3F)ccc2o1 (hydrate or solvate) [Compound 98, (R)-2-[5-(2-fluoro-phenyl)-benzofuran-2-ylmethoxycarbonylamino]-3-phenyl-propionic acid]
melting point: 97.1 to 100.8 °C

O=C(N[C@H](Cc1ccccc1)C(=O)O)OCc1ccc(COc2cccc3ncccc23)cc1 [Compound 152, (R)-3-phenyl-2-[4-(quinolin-5-yloxymethyl)-benzyloxycarbonylamino]-propionic acid]
melting point: 189.4 to 189.8 °C

O=C(N[C@H](Cc1ccccc1)C(=O)O)OCc1cc2cc(C(=O)c3ccccc3)ccc2o1 [Compound 136, (R)-3-phenyl-2-[5-(1-phenyl-methanoyl)-benzofuran-2-ylmethoxycarbonylamino]-propionic acid]
melting point: 136.3 to 138.6 °C

O=C(N[C@H](Cc1ccccc1)C(=O)O)OCc1cc2cc(-c3ccc(Cl)cc3)ccc2o1 (hydrate or solvate) [Compound 94, (R)-2-[5-(4-chloro-phenyl)-benzofuran-2-ylmethoxycarbonylamino]-3-phenyl-propionic acid]
melting point: 129.5 to 144 °C

O=C(N[C@H](Cc1ccccc1)C(=O)O)OCc1ccc(Cn2ccc3ccccc32)cc1 [Compound 153, (R)-2-(4-indol-1-ylmethyl-benzyloxycarbonylamino)-3-phenyl-propionic acid]
melting point: 122 to 125 °C

O=C(NC(Cc1ccncc1)C(=O)O)OCc1cc2cc(-c3ccccc3)ccc2o1 (stereo not shown) [Compound 163, 2-(5-phenyl-benzofuran-2-ylmethoxycarbonylamino)-3-pyridin-4-yl-propionic acid]
melting point: 219 to 220 °C

O=C(NC(Cc1cccnc1)C(=O)O)OCc1cc2cc(-c3ccccc3)ccc2o1 (stereo not shown) [Compound 164, 2-(5-Phenyl-benzofuran-2-ylmethoxycarbonylamino)-3-pyridin-3-yl-propionic acid]
melting point: 164 to 169 °C

O=C(N[C@H](Cc1ccc(F)cc1)C(=O)O)OCc1cc2cc(-c3ccccc3)ccc2o1 (hydrate or solvate) [Compound 105, (R)-3-(4-fluoro-phenyl)-2-(5-phenylbenzofuran-2-ylmethoxycarbonylamino)-propionic acid]
melting point: 131.5 to 135 °C

O=C(N[C@H](Cc1ccc(F)cc1)C(=O)O)OCc1ccc2oc(-c3ccc(F)cc3)cc2c1 [Compound 140, (R)-3-(4-fluoro-phenyl)-2-[2-(4-fluoro-phenyl)-benzofuran-5-ylmethoxycarbonylamino]-propionic acid]
melting point: 201 to 204 °C
